Reference: ChEMBL document CHEMBL5465560, “Selectivity Literature for EUbOPEN Chemogenomic Library” (2024)
Each block holds one compound with its values, some of them ahead of it.

What was measured:
[1] = target: Serine/threonine-protein kinase PAK 1 (Homo sapiens) (UniProt Q13153); experiment: Selectivity interaction (KinomeScan (DiscoverX)) EUB0000655a PAK1; settings: at 10 µM
[2] = target: T1, Dual specificity tyrosine-phosphorylation-regulated kinase 2 (Homo sapiens) (UniProt Q92630); experiment: Selectivity interaction (KinomeScan (DiscoverX)) EUB0000595a DYRK2; settings: at 10 µM
T1 sequence (whole entry): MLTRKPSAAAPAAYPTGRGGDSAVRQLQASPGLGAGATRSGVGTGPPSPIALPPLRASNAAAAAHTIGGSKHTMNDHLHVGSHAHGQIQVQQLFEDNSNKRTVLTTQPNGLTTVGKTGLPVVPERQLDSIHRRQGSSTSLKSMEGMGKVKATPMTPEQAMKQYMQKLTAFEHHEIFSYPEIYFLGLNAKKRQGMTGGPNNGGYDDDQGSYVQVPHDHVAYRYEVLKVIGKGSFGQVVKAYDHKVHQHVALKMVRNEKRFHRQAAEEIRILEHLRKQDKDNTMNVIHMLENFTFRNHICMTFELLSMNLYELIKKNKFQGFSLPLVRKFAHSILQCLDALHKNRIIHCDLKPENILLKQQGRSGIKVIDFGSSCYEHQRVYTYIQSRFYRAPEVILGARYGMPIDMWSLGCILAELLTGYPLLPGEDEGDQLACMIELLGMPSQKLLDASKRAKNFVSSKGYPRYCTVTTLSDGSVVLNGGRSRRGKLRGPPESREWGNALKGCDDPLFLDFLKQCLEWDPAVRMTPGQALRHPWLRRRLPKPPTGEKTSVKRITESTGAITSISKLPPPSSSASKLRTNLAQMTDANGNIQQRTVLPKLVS

[3] = target: T2, Cyclin-dependent kinase 11A (Homo sapiens) (UniProt Q9UQ88); settings: at 10 µM
T2 sequence (whole entry): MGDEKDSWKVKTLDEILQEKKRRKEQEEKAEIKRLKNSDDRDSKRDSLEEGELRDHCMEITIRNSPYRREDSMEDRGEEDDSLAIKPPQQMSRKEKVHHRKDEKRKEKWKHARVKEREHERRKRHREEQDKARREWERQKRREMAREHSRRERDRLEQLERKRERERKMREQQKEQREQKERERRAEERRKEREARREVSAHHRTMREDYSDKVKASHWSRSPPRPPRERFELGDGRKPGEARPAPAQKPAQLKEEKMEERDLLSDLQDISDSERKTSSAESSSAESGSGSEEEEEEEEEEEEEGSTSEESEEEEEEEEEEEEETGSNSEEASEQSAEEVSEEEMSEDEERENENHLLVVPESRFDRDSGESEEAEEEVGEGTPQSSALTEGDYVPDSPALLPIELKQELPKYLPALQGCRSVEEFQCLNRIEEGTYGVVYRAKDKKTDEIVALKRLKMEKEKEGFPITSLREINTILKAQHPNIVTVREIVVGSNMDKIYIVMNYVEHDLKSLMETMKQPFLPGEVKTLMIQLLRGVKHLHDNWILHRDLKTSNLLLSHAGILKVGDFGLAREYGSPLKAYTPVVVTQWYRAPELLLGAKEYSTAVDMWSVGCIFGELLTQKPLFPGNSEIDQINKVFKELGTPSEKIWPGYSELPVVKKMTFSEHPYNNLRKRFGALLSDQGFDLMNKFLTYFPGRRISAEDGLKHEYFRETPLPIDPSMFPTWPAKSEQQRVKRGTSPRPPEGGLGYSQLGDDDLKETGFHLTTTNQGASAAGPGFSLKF

[4] = target: Mitogen-activated protein kinase kinase kinase 8 (Homo sapiens, UniProt P41279); experiment: Selectivity interaction (Kinase panel (Invitrogen)) EUB0000639a MAP3K8; settings: at 200 nM
[5] = target: T3, Mitogen-activated protein kinase kinase kinase 5 (Homo sapiens) (UniProt Q99683); experiment: Selectivity interaction (Kinase panel (Invitrogen)) EUB0000639a MAP3K5; settings: at 200 nM
T3 sequence (whole entry): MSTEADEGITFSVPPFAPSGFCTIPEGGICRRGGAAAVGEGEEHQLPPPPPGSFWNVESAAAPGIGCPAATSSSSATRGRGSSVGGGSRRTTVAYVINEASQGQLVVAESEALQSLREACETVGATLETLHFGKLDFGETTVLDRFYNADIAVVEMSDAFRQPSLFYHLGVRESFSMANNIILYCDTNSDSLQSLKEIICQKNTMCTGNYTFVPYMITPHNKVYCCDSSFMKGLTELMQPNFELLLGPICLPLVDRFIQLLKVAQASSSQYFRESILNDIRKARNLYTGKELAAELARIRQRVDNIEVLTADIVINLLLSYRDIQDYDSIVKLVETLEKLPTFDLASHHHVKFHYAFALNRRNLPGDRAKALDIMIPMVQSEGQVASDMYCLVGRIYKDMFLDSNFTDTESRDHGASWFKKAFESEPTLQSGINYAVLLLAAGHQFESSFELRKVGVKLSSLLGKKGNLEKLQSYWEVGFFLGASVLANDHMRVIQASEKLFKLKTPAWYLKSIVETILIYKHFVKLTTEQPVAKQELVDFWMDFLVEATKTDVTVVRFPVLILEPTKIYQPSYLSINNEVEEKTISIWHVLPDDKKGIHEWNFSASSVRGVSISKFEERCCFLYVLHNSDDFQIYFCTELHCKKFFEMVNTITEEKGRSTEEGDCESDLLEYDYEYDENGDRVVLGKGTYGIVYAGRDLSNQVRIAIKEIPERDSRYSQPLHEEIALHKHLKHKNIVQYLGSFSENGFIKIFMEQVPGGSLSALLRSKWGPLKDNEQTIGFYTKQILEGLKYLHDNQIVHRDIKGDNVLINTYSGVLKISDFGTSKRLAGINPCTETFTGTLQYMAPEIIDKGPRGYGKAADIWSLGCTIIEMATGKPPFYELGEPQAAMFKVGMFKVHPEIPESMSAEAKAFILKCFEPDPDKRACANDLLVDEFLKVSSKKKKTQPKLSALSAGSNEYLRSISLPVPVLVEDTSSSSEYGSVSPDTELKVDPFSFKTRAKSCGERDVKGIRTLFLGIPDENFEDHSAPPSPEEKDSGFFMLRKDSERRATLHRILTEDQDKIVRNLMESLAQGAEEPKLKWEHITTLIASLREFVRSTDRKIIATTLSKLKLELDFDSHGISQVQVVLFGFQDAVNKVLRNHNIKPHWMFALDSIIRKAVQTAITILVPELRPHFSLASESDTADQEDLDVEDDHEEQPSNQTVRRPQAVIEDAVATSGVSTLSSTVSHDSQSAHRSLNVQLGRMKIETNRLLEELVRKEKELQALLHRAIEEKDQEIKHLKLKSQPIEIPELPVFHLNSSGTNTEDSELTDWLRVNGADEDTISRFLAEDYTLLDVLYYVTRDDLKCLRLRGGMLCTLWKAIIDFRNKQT

Sequence of Serine/threonine-protein kinase PAK 1 (Homo sapiens) (Q13153 whole entry): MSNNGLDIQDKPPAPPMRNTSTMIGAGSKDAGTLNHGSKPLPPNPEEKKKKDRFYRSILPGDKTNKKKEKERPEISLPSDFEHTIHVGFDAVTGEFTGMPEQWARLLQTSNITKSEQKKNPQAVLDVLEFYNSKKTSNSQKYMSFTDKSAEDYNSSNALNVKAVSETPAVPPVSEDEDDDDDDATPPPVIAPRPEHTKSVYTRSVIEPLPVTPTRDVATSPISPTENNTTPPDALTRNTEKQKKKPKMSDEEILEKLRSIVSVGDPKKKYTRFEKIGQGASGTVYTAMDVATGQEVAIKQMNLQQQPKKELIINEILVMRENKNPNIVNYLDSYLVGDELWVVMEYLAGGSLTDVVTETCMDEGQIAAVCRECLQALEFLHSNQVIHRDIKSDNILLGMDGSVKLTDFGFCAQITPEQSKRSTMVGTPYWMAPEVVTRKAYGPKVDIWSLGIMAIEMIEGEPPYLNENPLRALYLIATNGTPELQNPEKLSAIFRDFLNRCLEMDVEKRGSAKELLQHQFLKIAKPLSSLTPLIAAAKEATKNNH
Sequence of Mitogen-activated protein kinase kinase kinase 8 (P41279 whole entry): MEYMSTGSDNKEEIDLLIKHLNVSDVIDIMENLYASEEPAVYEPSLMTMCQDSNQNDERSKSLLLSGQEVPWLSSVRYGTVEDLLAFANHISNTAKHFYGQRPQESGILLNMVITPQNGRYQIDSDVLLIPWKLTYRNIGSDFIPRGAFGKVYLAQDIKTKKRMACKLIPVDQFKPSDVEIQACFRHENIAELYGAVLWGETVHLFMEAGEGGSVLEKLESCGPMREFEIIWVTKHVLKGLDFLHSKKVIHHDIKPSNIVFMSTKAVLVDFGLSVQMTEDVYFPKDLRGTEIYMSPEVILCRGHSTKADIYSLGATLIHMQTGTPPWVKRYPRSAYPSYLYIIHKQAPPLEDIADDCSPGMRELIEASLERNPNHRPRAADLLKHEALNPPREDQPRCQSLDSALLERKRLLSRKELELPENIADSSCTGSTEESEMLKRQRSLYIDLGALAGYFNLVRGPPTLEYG

SMILES: CN(C)CCOc1ccc(-c2nc(-c3ccncc3)c(-c3ccc4c(c3)CC/C4=N\O)[nH]2)cc1
% of control [1]: 87%

SMILES: COCC(=O)NC/C=C/c1ccc2ncnc(Nc3ccc(Oc4ccc(C)nc4)c(C)c3)c2c1 [CP-724714]
% of control [2]: 100%

SMILES: Cc1cc([C@@H](C)Nc2ccccc2C(=O)O)c2nc(N3CCOCC3)cc(=O)n2c1 [AZD-6482]
% of control [3]: 100%

% of inhibition [4]: 24.9% | % of inhibition [5]: -8.62%
SMILES: CC[C@@H]1[C@H](F)C(=O)N[C@@H]1COc1nccc2cc(C(N)=O)c(OC)cc12 [ZIMLOVISERTIB]
